Results on 4 compounds are retold here after US20230116137A1, “METHODS FOR TREATING COLORECTAL AND METASTATIC COLORECTAL CANCERS” (Isofol Medical AB, priority 2017, published 2023).

SMILES strings stand for the structures. Where a name gives a salt, the structure may show the parent alone. Read-outs that look alike come from different tables or passages of the source.

Experiment [1] concerns metastatic colorectal cancer. Conditions: Phase II trial, previously untreated metastatic colorectal cancer; cited from earlier work.
A further experiment deals with pancreas cancer. Particulars: CoFactor combined with 5-FU, phase I/II; cited from earlier work.
A further experiment deals with colorectal cancer. Conditions: Phase IIb study; cited from earlier work.
Experiment [2] relates to solid tumors of stage IV metastatic colorectal cancer. Kind of experiment: Treatment of patients diagnosed with stage IV metastatic colorectal cancer with bevacizumab, oxaliplatin, 5-FU and 6R-MTHF; CT measurement of lesions, RECIST 1.1. The experiment is classed as in vivo, human.
From the text: The ORR may be calculated as follows: ORR=sum of partial responses plus complete responses as per RECIST 1.1 (a set of published rules that define when tumours in cancer patients progress during treatments)([Eisenhauer E A, Therasse P, Bogaerts J, Schwartz L H, Sargent D, Ford R, et al. New response evaluation criteria in solid tumours: revised RECIST guideline (version 1.1). Eur J Cancer. 2009 January; 45(2):228-47; incorporated by reference in its entirety]. As defined herein, a “complete response (CR)” means the disappearance of all target lesions. Any pathological lymph nodes (whether target or non-target) must have reduction in short axis to <10 mm. As used herein, a “partial response (PR)” means at least a 30% decrease in the sum of diameters of target lesions, taking as reference the baseline sum diameters.As used herein, “progressive disease (PD)” means at least a 20% increase in the sum of diameters of target lesions, taking as reference the smallest sum on study (this includes the baseline sum if that is the smallest on study). […] The appearance of one or more new lesions is also considered progression.
(§1) Bevacizumab was administered at a dose of 5 mg/kg by intravenous infusion over 30 to 90 minutes. Following administration of bevacizumab, oxaliplatin was administered at a dose of 85 mg/m^2 by intravenous infusion between 15 and 120 minutes. Following oxaliplatin administration, 5-fluorouracil (5-FU) at a dose of 400 mg/m^2 was administered by intravenous bolus within 5 minutes. Thirty minutes after administration of the 5-FU intravenous bolus, 6R-MTHF at a dose of 60 mg/m^2 was administered by intravenous bolus (completed within 3 minutes). About 5 minutes after completion of the 6R-MTHF intravenous bolus administration, an intravenous infusion of 5-FU at a dose of 2,400 mg/m^2 was initiated. The infusion was paused to administer an intravenous bolus of 6R-MTHF at a dose of 60 mg/m^2 (completed within 3 minutes). The 5-FU infusion was maintained for 46 hours.
as §1, §1

The subject of the next experiment is solid tumours. Particulars: cited from earlier work.
For a further experiment, the system named is colorectal tumors. Conditions: cited from earlier work.

For `Nc1nc(=O)c2c([nH]1)NCC1CN(c3ccc(C(=O)N[C@@H](CCC(=O)[O-])C(=O)[O-])cc3)CN21.[Ca+2]` (stereo partly drawn) [CoFactor, (dl)-5,10,-methylenepteroyl-monoglutamate calcium salt], the overall response rate in experiment [1] is on record as 35%. The “clinical benefit, defined as stable disease or tumor response, proportion of patients” value with pancreas cancer is reported as 40%. Further, the “efficacy and safety versus leucovorin arm” value in the experiment with colorectal cancer is “no significant differences”.
Consider `Nc1nc2c(c(=O)[nH]1)N1CN(c3ccc(C(=O)N[C@@H](CCC(=O)O)C(=O)O)cc3)C[C@H]1CN2` [6R-MTHF, [6R]-5,10-methylene tetrahydrofolate], for which the tumor response result in experiment [2] (Example 2 patient, second-line, 8-week treatment period) was “stable disease”; in experiment [2] (Example 3 patient, second-line, after 8 weeks), “partial response and no progression”; in experiment [2] (Example 3 patient, second-line, after 16 weeks), “partial response and no progression”; in experiment [2] (Example 3 patient, second-line, between 16 and 24 weeks), “no progression”; in experiment [2] (Example 4 patient, second-line, 8-week treatment period) it was “stable disease”; in experiment [2] (Example 4 patient, second-line, through 24 weeks), “no progression”. For the same compound, the tumor response entry was “stable disease” in experiment [2] (Example 6 patient, second-line, 8-week treatment period); “stable disease and no progression” in experiment [2] (Example 6 patient, second-line, through 16 weeks); “stable disease and no progression” in experiment [2] (Example 7 patient, second-line, 8-week treatment period); “no progression” in experiment [2] (Example 7 patient, second-line, through 16 weeks); “stable disease and no progression” in experiment [2] (Example 8 patient, first-line, 8-week treatment period); “stable disease and no progression” in experiment [2] (Example 8 patient, first-line, through 16 weeks). The tumor response entry in experiment [2] (Example 9 patient, second-line, 8-week treatment period) is “stable disease and no progression”; in experiment [2] (Example 9 patient, second-line, 16-week treatment period), “stable disease and no progression”; in experiment [2] (Example 10 patient, second-line, 8-week treatment period), “stable disease and no progression”; in experiment [2] (Example 10 patient, second-line, 16-week treatment period), “stable disease and no progression”; in experiment [2] (Example 12 patient, second-line, 8-week treatment period) it was “stable disease”. For the same compound, in experiment [2] (Example 2 patient, second-line, baseline 25, 13 and 12 mm (abdomen), after 8 weeks (CT at 10 weeks plus 2 days)), the “size of lesions (CT)” value is given as “unchanged in size”. In addition, the size of lesion entry in experiment [2] (Example 3 patient, second-line, 9 mm lesion, between 16 and 24 weeks) is recorded as “unchanged in size”; in experiment [2] (Example 4 patient, second-line, baseline 35 mm (liver), after 8 weeks), “unchanged in size”; in experiment [2] (Example 4 patient, second-line, baseline 35 mm (liver), after 16 and 24 weeks) it was “unchanged in size”; in experiment [2] (Example 5 patient, second-line, baseline 80 mm (liver), after 8 weeks) it was 96 mm; in experiment [2] (Example 6 patient, second-line, 41 mm lesion (baseline 44 mm), after 16 weeks) it was “unchanged in size”; in experiment [2] (Example 6 patient, second-line, baseline 44 mm (liver), after 8 weeks) it was 41 mm. Besides, the size of lesion result is “unchanged in size” in experiment [2] (Example 7 patient, second-line, baseline 22 mm (liver), after 8 weeks); “unchanged in size” in experiment [2] (Example 7 patient, second-line, baseline 22 mm (liver), after additional four cycles (8 weeks)); 59 mm in experiment [2] (Example 8 patient, first-line, baseline 72 mm (liver), after 8 weeks); 53 mm in experiment [2] (Example 8 patient, first-line, baseline 72 mm, 59 mm at 8 weeks, after 16 weeks); 56 mm in experiment [2] (Example 9 patient, second-line, baseline 57 mm (abdomen), after 8 weeks); 57 mm in experiment [2] (Example 9 patient, second-line, baseline 57 mm, 56 mm at 8 weeks, after 16 weeks). Besides, the size of lesion result is recorded as “unchanged in size” in experiment [2] (Example 10 patient, second-line, 188 mm lesion (baseline 250 mm), after 16 weeks); 188 mm in experiment [2] (Example 10 patient, second-line, baseline 250 mm (abdomen), after 8 weeks); 89 mm in experiment [2] (Example 11 patient, first-line, baseline 77 mm (liver), after 8 weeks); 30 mm in experiment [2] (Example 12 patient, second-line, baseline 26 mm (lung), after 8 weeks). Also, the “fate of 10 mm lesion” value in experiment [2] (Example 3 patient, second-line, baseline 10 and 16 mm (liver and lung), 8 weeks) is reported as “disappearance”. In addition, the “size of lesion (CT-verified)” value in experiment [2] (Example 3 patient, second-line, baseline 16 mm lesion, 8 weeks) was 13 mm; in experiment [2] (Example 3 patient, second-line, lesion 16 mm at baseline, 13 mm at 8 weeks, after 16 weeks), 9 mm.
`Nc1nc2c(c(=O)[nH]1)N(C=O)C(CNc1ccc(C(=O)N[C@@H](CCC(=O)O)C(=O)O)cc1)CN2` (some centres unmarked) [LV, calcium salt of 5-formyl-5,6,7,8-tetrahydrofolic acid]: in the experiment on solid tumours (LV added to 5-FU), the overall response rate result was “over 20%”. The response rate in the experiment on colorectal tumors (LV added to 5-FU) is 21%.
For the compound `O=c1[nH]cc(F)c(=O)[nH]1` [5-FU, 5-fluorouracil], the overall response rate with solid tumours (5-FU alone) is 10-15%. Besides, in the experiment with colorectal tumors (5-FU given as a monotherapy), the response rate entry is recorded as “around 10%”.
